Test results as given in US8389739B1, “Modulators of retinoid-related orphan receptor gamma” (Orphagen Pharmaceuticals, priority 2006, dated 2013).
Where “and” joins values, the source holds several entries; their conditions need not be identical. Equal entries are not always repeated. Entries after “also recorded” stand apart in the source; their conditions may differ.

Assay: Pharmacokinetics of OR-1050 in CD-1 mice, oral gavage
Format: in vivo
Procedure: FIG. 12B. Bioavailability of OR-1050. OR-1050 was dosed in CD-1 mice at […] in HRC-6, a proprietary formulation that is commercially available from Pharmatek (San Diego, Calif.). Blood samples from triplicate animals were tested for levels of OR-1050 at multiple time points.
Pharmacokinetics of OR-1050 in CD-1 mice was analyzed at independent bioanalytical laboratory. Male CD-1 mice were treated via oral gavage with OR-1050 at 5 mg/kg in HRC-6. Blood was collected via retro-orbital puncture in tubes containing sodium heparin anticoagulant at 0, 5, 15, and 30 min, and at 1, 2, 4, 6, 8 and 24 hr after oral administration. The concentration of OR-1050 in plasma was determined using an HPLC/MS/MS method.

CCN(c1ccc(C(O)(C(F)(F)F)C(F)(F)F)cc1)S(=O)(=O)c1ccc([N+](=O)[O-])cc1 [OR-1050, N-Ethyl-4-nitro-N-[4-(2,2,2-trifluoro-1-hydroxy-1-trifluoromethyl-ethyl)-phenyl]-benzenesulfonamide]
blood levels suggested for a higher dosage (extrapolated to 50 mg/kg): 1 μg/ml and ~2 μM | oral bioavailability, in words (mouse, in vivo, po): modest bioavailability; also recorded: orally-bioavailable; also recorded: orally bioavailable
